Assay results from patent US9102697B2, “Trioxacarcins and uses thereof” (President and Fellows of Harvard College, priority 2010, dated 2015).

Key:
[1] = tested on: self-complementary duplex 12-mer d(AATTACGTAATT) (SEQ ID NO: 1); assay: DNA alkylation detected by non-denaturing DNA-gel electrophoresis with in-gel fluorescence; format: biochemical; conditions: oligonucleotide 100 μM; at the lowest concentration of DC-45-A2 (printed 1 mM); 3 h at 23 °C
nuclei of H460 cells = assay: Fluorescence microscopy of labeled H460 cells; format: cell-based; conditions: 0.4 μM, 5 h at 37 °C, co-stain TO-PRO-3
Procedure: Fluorescence images of nuclei of H460 cells labeled with DC-45-A2 [4.0 μM] or dideoxy-DC-45-A2 [0.4 μM] for 5 h at 37° C. is provided in FIG. 15. […] The scale bar represents 10 μm.
Experimental Details for Fluorescence Microscopy: H460 cells were grown on 22 mm glass coverslips and allowed to attach for 24 h. Subconfluent H460 cells (50-60% confluency) were treated with drugs of desired concentration and incubated at 37° C. for 5 h. The coverslips were washed three times with warm PBS. The cells were then fixed with 4% paraformaldehyde in PBS at 23° C. for 15 min. At 23° C., the cells were permeablized with 0.1% Triton-X100 in PBS for 15 min and blocked with 5% BSA for 40 min. After two washes with PBS, the cells were incubated with 0.2 µM TO-PRO-3 (Invitrogen) in PBS at 23° C. for 15 min. The coverslips were washed three times with PBS and mounted with Mowiol on microscope slides. Fluorescent images were captured on an Olympus IX71 inverted microscope equipped with a 60× water-immersion objective, a Nikon Intensilight Illuminator, and an Andor iXon EMCCD camera. Imaging data of DC-45-A2 and dideoxy DC-45-A2 were collected with a 387/11 nm excitation filter and a 510/84 nm emission filter purchased from Semrock. TO-PRO-3 dye was imaged using Cy5 channels. The images were complied and colorized using ImageJ software.

DC-45-A2
fluorescent DC-45-A2-DNA complex, in-gel fluorescence prior to ethidium bromide staining [1]: clearly observed

Dideoxy-DC-45-A2
localization in cells (nuclei of H460 cells): co-localizes with nuclear DNA
